Results: PubChem BioAssay AID652066 (The Scripps Research Institute Molecular Screening Center, 2013)

Target: Nuclear receptor coactivator 3 (Homo sapiens) (UniProt Q9Y6Q9)
Experiment: reduction of cellular SRC-3 protein level, late-stage follow-up, mechanism study for SRC-3 inhibitor probe project, cell-based, MCF-7, Western blot, powder samples (AID 652066)
Details: MCF-7 SRC-3 protein level, 24 h

Nuclear receptor coactivator 3 (Homo sapiens), sequence (Q9Y6Q9 whole entry, looked up): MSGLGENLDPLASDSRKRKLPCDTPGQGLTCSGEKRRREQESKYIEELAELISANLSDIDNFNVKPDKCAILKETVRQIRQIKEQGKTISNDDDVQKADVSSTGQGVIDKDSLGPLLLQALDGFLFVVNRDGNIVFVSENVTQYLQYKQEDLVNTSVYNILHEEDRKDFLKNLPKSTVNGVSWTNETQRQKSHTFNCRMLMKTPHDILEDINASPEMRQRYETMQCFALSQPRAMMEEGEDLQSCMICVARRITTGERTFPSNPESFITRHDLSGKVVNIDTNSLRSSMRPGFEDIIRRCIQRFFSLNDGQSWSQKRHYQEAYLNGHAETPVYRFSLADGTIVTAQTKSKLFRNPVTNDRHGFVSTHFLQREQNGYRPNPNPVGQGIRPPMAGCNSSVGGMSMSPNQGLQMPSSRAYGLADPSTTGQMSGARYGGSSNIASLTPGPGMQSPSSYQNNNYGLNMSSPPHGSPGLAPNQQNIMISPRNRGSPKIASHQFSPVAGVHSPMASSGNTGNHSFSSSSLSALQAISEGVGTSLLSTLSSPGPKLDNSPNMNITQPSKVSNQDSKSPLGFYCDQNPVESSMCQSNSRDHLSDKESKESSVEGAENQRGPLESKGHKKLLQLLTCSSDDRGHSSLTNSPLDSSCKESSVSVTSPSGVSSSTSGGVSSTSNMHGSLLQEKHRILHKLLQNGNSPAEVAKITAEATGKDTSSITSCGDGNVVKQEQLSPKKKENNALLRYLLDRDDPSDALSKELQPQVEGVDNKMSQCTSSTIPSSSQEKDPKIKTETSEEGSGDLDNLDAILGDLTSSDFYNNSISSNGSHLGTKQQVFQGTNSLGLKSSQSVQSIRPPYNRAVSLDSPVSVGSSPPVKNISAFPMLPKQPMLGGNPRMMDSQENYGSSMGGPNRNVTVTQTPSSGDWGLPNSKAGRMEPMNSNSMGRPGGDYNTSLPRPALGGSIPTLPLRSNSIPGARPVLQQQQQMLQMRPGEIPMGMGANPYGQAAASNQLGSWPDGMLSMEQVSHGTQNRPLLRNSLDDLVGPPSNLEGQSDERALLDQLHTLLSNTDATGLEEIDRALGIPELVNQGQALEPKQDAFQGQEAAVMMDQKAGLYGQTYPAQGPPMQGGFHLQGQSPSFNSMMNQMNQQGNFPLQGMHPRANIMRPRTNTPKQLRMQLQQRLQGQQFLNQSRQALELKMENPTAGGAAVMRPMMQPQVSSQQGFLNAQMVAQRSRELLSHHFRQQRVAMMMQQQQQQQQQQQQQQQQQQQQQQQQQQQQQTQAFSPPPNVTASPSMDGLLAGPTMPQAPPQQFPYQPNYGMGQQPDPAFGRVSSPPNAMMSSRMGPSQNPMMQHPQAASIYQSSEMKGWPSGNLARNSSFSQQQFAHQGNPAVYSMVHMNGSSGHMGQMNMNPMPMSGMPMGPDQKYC

Row | IC50 | Structure (SMILES)
1 | < 2 µM | COc1cc2c(cc1OC)C(NC(=O)C(F)(F)F)CNC2=O (stereo unspecified)
2 | < 2 µM | NC(=O)c1sc2nc3c(c(-c4ccco4)c2c1N)CCC3
3 | < 0.4 µM | COc1cc(C2c3cc4c(cc3C(OC3OC5COC(c6cccs6)OC5C(O)C3O)C3COC(=O)C23)OCO4)cc(OC)c1O (stereo unspecified)
4 | < 2 µM | O=C(CCl)N1N=C(c2ccco2)CC1c1ccco1 (stereo unspecified)
5 | < 2 µM | O=C(Nc1nc(-c2ccccn2)cs1)c1cccc(S(=O)(=O)N2CCOCC2)c1
6 | < 0.4 µM | O=C(CCl)N1N=C(c2ccco2)CC1c1cccs1 (stereo unspecified)
